In patent US6133313A, “Insecticidal avocadofurans and triolein” (The Regents of the University of California, priority 1998, dated 2000):
“Also recorded” adds a separate entry of the source.

Experiments:
Assay type in all cases: in vivo, Spodoptera exigua
S. exigua larvae = test: growth inhibition and mortality of synthetic avocadofurans and triolein in diet bioassay; set-up: key to GI (growth index): growth index calculated per J. Chem. Ecol. 19:1109 (1993), imax = 3; conditions: for comparative toxicity and growth inhibition / inhibition of larval growth: in words; for 7-d Instar / 7-d Larval Weight: mean ± SE; for mortality at 600 µg/g / mortality at 750 µg/g / mortality at 900 µg/g / mortality at 1050 µg/g / mortality at 1200 µg/g: 168 h, 7 d; for Relative Growth Index (RGI) vs log concentration regression (FIG. 4): log (μg/g)
Procedure: S. exigua larvae were used in all experiments. Larvae were reared on artificial diet modified from U.S.D.A. Agric. Res. Serv., Prod. Res. Rep., 1208:1 (1969), and maintained at 28+2° C., 14:10; light:dark (L:D) photoperiod.
The colony was collected from Orange Co., Calif. and had new genetic material added within 12 months prior to the study. The age of the cohorts tested was standardized by using neonates within 12 hours of eclosion. All bioassays were maintained at 28+2° C. 75% relative humidity (RH), and at 14:10 (L:D) photoperiod with fluorescent lighting.
The insecticidal activity of the fractions was tested with artificial diet bioassays. Treated diets were prepared by transferring 750 μl of acetone solutions of each fraction (equivalent to 300 mg crude idioblast cell oil) into 50-ml polypropylene centrifuge tubes (Fisher, Pittsburgh Pa.), evaporating the acetone, adding 2 ml of 0.1% Tween-80 solution (Fisher), homogenizing with an ultrasonic homogenizer (Co le-Parmer, Chicago Ill.), and adding prepared diet to produce a final weight of 15 g containing the equivalent of 2% idioblast oil. The mixture was vortexed for 3 mm.
Control diet was prepared by mixing 2 ml of Tween solution and 13 g of artificial diet to produce a final weight of 15 g. Control and treated diets were poured into 24-well (15.9 mm diameter and 15.9 mm depth) bioassay trays (C-D International Inc., Pitman N.J.). One neonate was added per well, and trays were placed in an incubator under the previously described conditions. Twenty-four neonates were tested for each fraction and control. Mortality and larval weights were recorded after 7 days.
The effect of the synthetically produced avocado furan compounds (>95% purity) and commercially available triolein (Sigma, St. Louis, Mo.) were tested on larval growth and mortality of S exigua. Treated and control diet were prepared as previously described.
Six different compound concentrations, chosen on the basis of studies with the oil fractions, were evaluated for both 2-(pentadecyl)furan and 2-(heptadecyl)furan: 0 (control), 600, 750, 900, 1050, and 1200 μg/g. Also, six concentrations of triolein (subfraction 1-1-12) were tested: 0 (control), 7000, 8000, 9000, 10000, and 11000 μg/g.
Twenty-four neonates were used per treatment. Bioassays were conducted as described in Example 4, and replicated 4 times for each concentration (i.e., a total of 96 larvae were tested for each concentration). Larval weight, instar, and mortality were recorded after 7 days […].
(§1) EC (effective concentration) values were calculated by subtracting the mean larval weight for each treatment from the mean weight of the controls, and dividing by the mean weight of the controls. LC (lethal concentration) values were obtained using probit analysis as described in Probit Analysis (1971) Cambridge University Press, Cambridge, UK. GI (growth index) and RGI (relative growth index) values were calculated as described in J. Chem. Ecol., 19:1109 (1993), but using an imax of 3 (the stage attained by most control larvae after 7 d). Statistical comparisons were conducted using SuperAnova Abacus Concept Inc., Berkeley, Calif. (1989).

neonate S. exigua = test: individual toxicity of avocadofurans and triolein in artificial diet; conditions: for effect on pupal weight (FIG. 7) / larval developmental time from neonate to pupa (FIG. 8) / Relative Growth Index (RGI) (FIG. 10): in words; for Relative Growth Index (RGI) (FIG. 10): increasing concentrations
Procedure: In this study, individual activity of avocadofurans was investigated quantitatively. For this purpose, eight concentrations of the avocadofurans (1) and (4) and triolein (8) were tested. Results are seen in FIG. 6.
Following pilot studies, eight concentrations of each were tested: 0, 0.5, 1, 1.5, 2, 2.5, 3, and 3.5 μmoles g^~1 diet. Also, five concentrations of triolein were tested: 0; 1,000; 2,000; 3,000; and 4,000 μg g^~1 diet. Because triolein was not compared to a structurally similar compound, a more standard dietary formulation of μg g-^1 was used rather than ^~ moles g^-1 in all triolein-treated bioassays.
Treated and control diet were prepared as described above. For each concentration the compounds were dissolved in 10 ml of Tween solution and mixed using an ultrasonic homogenizer. Untreated diet was added to make a total of 100 g and then vortexed for 3 mm. Control diet was prepared by mixing 10 ml of the Tween solution with 90 g of artificial diet to produce a final weight of 100 g. Control and treated diets were poured into 30 ml plastic cups. One neonate was placed in each cup and cups were held in an incubator. Fifteen larvae were tested at each concentration, and assays were replicated 4 times (total of 60 larvae/treatment). For each diet treatment, 9-d larval instar and weight, pupal weights, times to pupation, and larval mortality were recorded.
as §1

S. exigua = test: synergistic/joint toxicity of avocadofuran and triolein combinations; conditions: for Mortality (%) using LC25 / Survival to pupation: in vivo; for Weight, 9-d larvae / Weight, Pupae: mean ± spread; for Developmental times: neonate-pupa, in d (unit assumed)
Source text: The treatments were as follows: Control, 2-(pentadecyl)furan, 2-(heptadecyl)furan, triolein, individually, and 2-(pentadecyl)furan combined with 2-(heptadecyl)furan and triolein, 2-(pentadecyl)furan combined with triolein, and 2-(heptadecyl)furan combined with triolein. Because the combined LC25 s for both avocadofurans exceed their LC50 values, a concentration for each was adjusted so that when added it would approximate the value of the avocadofurans LC50 (see Table 2). These concentrations were used whenever both avocadofurans were combined in the same treatment. Treatments were replicated four times, with 15 larvae per replicate to a total of 60 larvae/treatment.
Joint effects were determined by testing all combinations of LC25 s (estimated from probit lines shown in Table 1) of the three compounds for toxicity to S. exigua. The treatments were: control, 2-(pentadecyl)furan, 2-(heptadecyl)furan, triolein, 2-(pentadecyl)furan+triolein, 2-(heptadecyl)furan+triolein, and 2-(pentadecyl)furan+2-(heptadecyl)furan+triolein. Because the combined LC25 s for both avocadofurans exceeded their LC50 values (due to a steep slope of their LC lines), a concentration for each was used so that when added together it would approximate the value of the avocadofurans LC50 (Table 1). These concentrations were used whenever both avocadofurans were combined in the same treatment.
Treatments were replicated four times, with 15 larvae per replicate (total of 60 larvae/treatment). Dietary treatment preparations and bioassay procedures were conducted as described in Example 4. For each diet treatment, 9-d larval instar and weight, pupal weights, times to pupation, and larval mortality were recorded.

[1] = Spodoptera exigua, feed or water, 600 μg/g
[2] = Spodoptera exigua, feed or water, 750 μg/g
[3] = Spodoptera exigua, feed or water, 900 μg/g
[4] = Spodoptera exigua, feed or water, 1050 μg/g
[5] = Spodoptera exigua, feed or water, 1200 μg/g
[6] = lowest concentration vs controls

## CCCCC/C=C\C/C=C\CCCCCCCc1ccco1 [2-(8Z,11Z-heptadecadienyl)furan]
S. exigua larvae; 1600 μg/g
  inhibition of S. exigua growth compared to control larvae: 54.51%
S. exigua larvae; Spodoptera exigua, feed or water, 1600 μg/g
  mortality at 1600 µg/g: < 5%
S. exigua larvae; in vivo
  active concentration relative to the saturated compound (4): twice as high as the saturated compound (4)
S. exigua larvae
  comparative toxicity and growth inhibition: of much lower toxicity than 2-(heptadecyl)furan (4)
S. exigua larvae; lowest active concentration, in diet
  concentration at which S. exigua growth is inhibited / compound active: ≥ 1600 µg/g

## CCCCCCCCCCCCCCCCCc1ccco1 [2-(heptadecyl)furan (4), 2-(heptadecyl)furan]
S. exigua larvae; 600 μg/g
  GI (growth index): 0.73
  percent reduction in larval weight vs control: 79.46%
  7-d Instar: 2.25 ± 0.06
  7-d Larval Weight: 6.44 ± 0.44 mg
S. exigua larvae; 750 μg/g
  GI (growth index): 0.62
  percent reduction in larval weight vs control: 87.14%
  7-d Instar: 1.95 ± 0.06
  7-d Larval Weight: 4.03 ± 0.44 mg
S. exigua larvae; 900 μg/g
  GI (growth index): 0.56
  percent reduction in larval weight vs control: 89.84%
  7-d Instar: 1.87 ± 0.06
  7-d Larval Weight: 3.19 ± 0.30 mg
S. exigua larvae; 1050 μg/g
  GI (growth index): 0.46
  percent reduction in larval weight vs control: 93.55%
  7-d Instar: 1.65 ± 0.07
  7-d Larval Weight: 2.02 ± 0.16 mg
S. exigua larvae; 1200 μg/g
  GI (growth index): 0.23
  percent reduction in larval weight vs control: 95.93%
  7-d Instar: 1.43 ± 0.08
  7-d Larval Weight: 1.28 ± 0.16 mg
S. exigua larvae; 600 to 900 μg/g
  mortality: < 15%
  reduction of larval development and growth: > 75%
S. exigua larvae; [1]
  mortality at 600 µg/g: 2.08%
S. exigua larvae; [2]
  mortality at 750 µg/g: 4.2%
S. exigua larvae; [3]
  mortality at 900 µg/g: 10.4%
S. exigua larvae; [4]
  mortality at 1050 µg/g: 16.7%
S. exigua larvae; [5]
  mortality at 1200 µg/g: 54.2%
S. exigua larvae; in diet
  LC50 (95% FL): 1206 µg/g
S. exigua larvae
  comparative toxicity and growth inhibition: more toxic and growth inhibitory to S. exigua than either of the unsaturated compounds (2) and (6)
  inhibition of larval growth: significantly inhibited larval growth
  Relative Growth Index (RGI) vs log concentration regression (FIG. 4): y=4.82-1.47*log(x), r^2 =0.89
Neonate S. exigua; avocadofurans, larval stage
  LC25 (95% FL): 1.02(0.70-1.29) μmoles g^-1 of diet
Neonate S. exigua
  effect on pupal weight (FIG. 7): significantly reduced
  larval developmental time from neonate to pupa (FIG. 8): significantly prolonged
  Relative Growth Index (RGI) (FIG. 10): decreased with increasing concentrations
Neonate S. exigua; larval stage
  LC50: 2.1 μmoles g^-1 diet
Neonate S. exigua; [6]
  concentration significantly reducing pupal weight (FIG. 7A): ≥ 3 µmol/g
S. exigua
  Mortality (%) using LC25: 23.3%
  Survival to pupation: 76.6%
  Weight, 9-d larvae: 54.2 ± 5.9 mg
  Weight, Pupae: 112.8 ± 2.6 mg
  Developmental times: 18.0

## CCCCCCCCCCCCCCCc1ccco1 [2-(pentadecyl)furan (1), 2-(pentadecyl)furan]
S. exigua larvae; 600 μg/g
  GI (growth index): 0.69
  percent reduction in larval weight vs control: 72.89%
  7-d Instar: 2.29 ± 0.07
  7-d Larval Weight: 8.50 ± 0.95 mg
S. exigua larvae; 750 μg/g
  GI (growth index): 0.55
  percent reduction in larval weight vs control: 85.83%
  7-d Instar: 2.04 ± 0.07
  7-d Larval Weight: 4.44 ± 0.45 mg
S. exigua larvae; 900 μg/g
  GI (growth index): 0.26
  percent reduction in larval weight vs control: 90.35%
  7-d Instar: 1.74 ± 0.07
  7-d Larval Weight: 3.03 ± 0.35 mg
S. exigua larvae; 1050 μg/g
  GI (growth index): 0.25
  percent reduction in larval weight vs control: 95.50%
  7-d Instar: 1.61 ± 0.07
  7-d Larval Weight: 1.41 ± 0.15 mg
S. exigua larvae; 1200 μg/g
  GI (growth index): 0.15
  percent reduction in larval weight vs control: 95.78%
  7-d Instar: 1.56 ± 0.09
  7-d Larval Weight: 1.32 ± 0.19 mg
S. exigua larvae; [1]
  mortality at 600 µg/g: 9.37%
S. exigua larvae; [2]
  mortality at 750 µg/g: 18.8%
S. exigua larvae; [3]
  mortality at 900 µg/g: 32.3%
S. exigua larvae; [4]
  mortality at 1050 µg/g: 54.2%
S. exigua larvae; [5]
  mortality at 1200 µg/g: 71.9%
S. exigua larvae; concentrations above 600 μg/g
  reduction of larval development: > 70%
S. exigua larvae; in diet
  LC50 (95% FL): 1031 µg/g
S. exigua larvae
  inhibition of larval growth: significantly inhibited larval growth
  Relative Growth Index (RGI) vs log concentration regression (FIG. 4): y=5.66-1.79*log(x), r^2 =0.94
S. exigua larvae; listed as 1
  comparative toxicity and growth inhibition: more toxic and growth inhibitory to S. exigua than either of the unsaturated compounds (2) and (6); also recorded: the most toxic
S. exigua larvae; listed as 2-(pentadecyl)furan
  comparative toxicity and growth inhibition: most active of the two major compounds from that subfraction
Neonate S. exigua; 1.5 μmoles g^-1 or higher, 9 d
  growth inhibition (FIG. 6A): more than 50%
Neonate S. exigua; avocadofurans, larval stage
  LC25 (95% FL): 1.76(1.55-1.93) μmoles g^-1 of diet
  LC50 (95% FL): 2.24(2.08-2.39) μmoles g^-1 of diet
Neonate S. exigua
  effect on pupal weight (FIG. 7): significantly reduced
  larval developmental time from neonate to pupa (FIG. 8): significantly prolonged
  Relative Growth Index (RGI) (FIG. 10): decreased with increasing concentrations
Neonate S. exigua; larval stage
  LC50: 2.2 μmoles g^-1 diet
Neonate S. exigua; [6]
  concentration significantly reducing 9-day larval weight (FIG. 6A): ≥ 1.5 µmol/g
  concentration significantly reducing pupal weight (FIG. 7A): ≥ 3 µmol/g
S. exigua
  Mortality (%) using LC25: 36.7%
  Survival to pupation: 63.3%
  Weight, 9-d larvae: 22.4 ± 2.9 mg
  Weight, Pupae: 104.3 ± 3.2 mg
  Developmental times: 19.8 ± 0.7
